Data taken from ChEMBL document CHEMBL5143517, “Discovery and radiosensitization research of ursolic acid derivatives as SENP1 inhibitors” (Eur J Med Chem, 2022).

assay: Cytotoxicity against human HeLa cells assessed as inhibition of cell growth incubated for 72 hrs by CCK-8 assay; format: toxicity, cell-based

SMILES	IC50 at 72 h [µM]
C[C@H]1[C@H](C)CC[C@]2(C(=O)NCC(N)=O)CC[C@]3(C)C(=CC[C@@H]4[C@@]5(C)CC[C@H](O)C(C)(C)[C@@H]5CC[C@]43C)[C@H]12	> 20
COC(=O)[C@]12CC[C@@H](C)[C@H](C)[C@H]1C1=CC[C@@H]3[C@@]4(C)CC[C@H](O)C(C)(C)[C@@H]4CC[C@@]3(C)[C@]1(C)CC2 [METHYL URSOLATE]	> 20
COC(=O)[C@@H]1CCCN1C(=O)[C@]12CC[C@@H](C)[C@H](C)[C@H]1C1=CC[C@@H]3[C@@]4(C)CC[C@H](OC(C)=O)C(C)(C)[C@@H]4CC[C@@]3(C)[C@]1(C)CC2	> 20
C[C@H]1[C@H](C)CC[C@]2(C(=O)OCCN3CCN(c4cccc(C(F)(F)F)c4)CC3)CC[C@]3(C)C(=CC[C@@H]4[C@@]5(C)CC[C@H](O)C(C)(C)[C@@H]5CC[C@]43C)[C@H]12	> 20
C[C@H]1[C@H](C)CC[C@]2(C(=O)OCCBr)CC[C@]3(C)C(=CC[C@@H]4[C@@]5(C)CC[C@H](O)C(C)(C)[C@@H]5CC[C@]43C)[C@H]12	> 20
C[C@H]1[C@H](C)CC[C@]2(C(=O)NCC(=O)NCC(O)CO)CC[C@]3(C)C(=CC[C@@H]4[C@@]5(C)CC[C@H](O)C(C)(C)[C@@H]5CC[C@]43C)[C@H]12 (stereo partly specified)	> 20
C[C@H]1[C@H](C)CC[C@]2(C(=O)OCCN3CCN(CCO)CC3)CC[C@]3(C)C(=CC[C@@H]4[C@@]5(C)CC[C@H](O)C(C)(C)[C@@H]5CC[C@]43C)[C@H]12	> 20
C[C@H]1[C@H](C)CC[C@]2(C(=O)NCC(=O)N(CCO)CCO)CC[C@]3(C)C(=CC[C@@H]4[C@@]5(C)CC[C@H](O)C(C)(C)[C@@H]5CC[C@]43C)[C@H]12	> 20
CNC(=O)CN(C)C(=O)[C@]12CC[C@@H](C)[C@H](C)[C@H]1C1=CC[C@@H]3[C@@]4(C)CC[C@H](O)C(C)(C)[C@@H]4CC[C@@]3(C)[C@]1(C)CC2	> 20
C[C@H]1[C@H](C)CC[C@]2(C(=O)N(C)CC(=O)O)CC[C@]3(C)C(=CC[C@@H]4[C@@]5(C)CC[C@H](O)C(C)(C)[C@@H]5CC[C@]43C)[C@H]12	> 20
C[C@H]1[C@H](C)CC[C@]2(C(=O)N[C@@H](C)c3ccccc3)CC[C@]3(C)C(=CC[C@@H]4[C@@]5(C)CC[C@H](O)C(C)(C)[C@@H]5CC[C@]43C)[C@H]12	> 20
COC(=O)COC(=O)[C@]12CC[C@@H](C)[C@H](C)[C@H]1C1=CC[C@@H]3[C@@]4(C)CC[C@H](O)C(C)(C)[C@@H]4CC[C@@]3(C)[C@]1(C)CC2 [3BETA-HYDROXY-URS-12-EN-28-METHYL ACETOACETATE]	> 20
C[C@H]1[C@H](C)CC[C@]2(C(=O)OCC3CCN(C(=O)OC(C)(C)C)CC3)CC[C@]3(C)C(=CC[C@@H]4[C@@]5(C)CC[C@H](O)C(C)(C)[C@@H]5CC[C@]43C)[C@H]12	> 20
C[C@H]1[C@H](C)CC[C@]2(C(=O)OCCCCN3CCOCC3)CC[C@]3(C)C(=CC[C@@H]4[C@@]5(C)CC[C@H](O)C(C)(C)[C@@H]5CC[C@]43C)[C@H]12	> 20
C[C@H]1[C@H](C)CC[C@]2(C(=O)OCC(=O)N(C)CCO)CC[C@]3(C)C(=CC[C@@H]4[C@@]5(C)CC[C@H](O)C(C)(C)[C@@H]5CC[C@]43C)[C@H]12	> 20
COC(=O)[C@@H]1CCCN1CCOC(=O)[C@]12CC[C@@H](C)[C@H](C)[C@H]1C1=CC[C@@H]3[C@@]4(C)CC[C@H](O)C(C)(C)[C@@H]4CC[C@@]3(C)[C@]1(C)CC2	> 20
CC(=O)O[C@H]1CC[C@]2(C)[C@H]3CC=C4[C@@H]5[C@@H](C)[C@H](C)CC[C@]5(C(=O)N[C@@H](C)c5ccccc5)CC[C@@]4(C)[C@]3(C)CC[C@H]2C1(C)C	> 20
C[C@H]1[C@H](C)CC[C@]2(C(=O)OCCN3CCNC(=O)C3)CC[C@]3(C)C(=CC[C@@H]4[C@@]5(C)CC[C@H](O)C(C)(C)[C@@H]5CC[C@]43C)[C@H]12	> 20
C[C@H]1[C@H](C)CC[C@]2(C(=O)NCC(=O)N(C)CCO)CC[C@]3(C)C(=CC[C@@H]4[C@@]5(C)CC[C@H](O)C(C)(C)[C@@H]5CC[C@]43C)[C@H]12	> 20
CC(=O)O[C@H]1CC[C@]2(C)[C@H]3CC=C4[C@@H]5[C@@H](C)[C@H](C)CC[C@]5(C(N)=O)CC[C@@]4(C)[C@]3(C)CC[C@H]2C1(C)C	> 20
COC(=O)CN(C)C(=O)[C@]12CC[C@@H](C)[C@H](C)[C@H]1C1=CC[C@@H]3[C@@]4(C)CC[C@H](OC(C)=O)C(C)(C)[C@@H]4CC[C@@]3(C)[C@]1(C)CC2	> 20
C[C@H]1[C@H](C)CC[C@]2(C(=O)OCc3ccccc3)CC[C@]3(C)C(=CC[C@@H]4[C@@]5(C)CC[C@H](O)C(C)(C)[C@@H]5CC[C@]43C)[C@H]12	> 20
COC(=O)CNC(=O)[C@]12CC[C@@H](C)[C@H](C)[C@H]1C1=CC[C@@H]3[C@@]4(C)CC[C@H](OC(C)=O)C(C)(C)[C@@H]4CC[C@@]3(C)[C@]1(C)CC2	> 20

SMILES	IC50 at 72 h [µM]
C[C@H]1[C@H](C)CC[C@]2(C(=O)OCCN3CCCCC3)CC[C@]3(C)C(=CC[C@@H]4[C@@]5(C)CC[C@H](O)C(C)(C)[C@@H]5CC[C@]43C)[C@H]12	> 20
C[C@H]1[C@H](C)CC[C@]2(C(=O)OCC(=O)NCCO)CC[C@]3(C)C(=CC[C@@H]4[C@@]5(C)CC[C@H](O)C(C)(C)[C@@H]5CC[C@]43C)[C@H]12	> 20
CC(=O)O[C@H]1CC[C@]2(C)[C@H]3CC=C4[C@@H]5[C@@H](C)[C@H](C)CC[C@]5(C(=O)O)CC[C@@]4(C)[C@]3(C)CC[C@H]2C1(C)C [O-ACETYLURSOLIC ACID]	> 20
C[C@H]1[C@H](C)CC[C@]2(C(=O)NCCC(=O)O)CC[C@]3(C)C(=CC[C@@H]4[C@@]5(C)CC[C@H](O)C(C)(C)[C@@H]5CC[C@]43C)[C@H]12	> 20
C[C@H]1[C@H](C)CC[C@]2(C(=O)OCCNC(=O)OC(C)(C)C)CC[C@]3(C)C(=CC[C@@H]4[C@@]5(C)CC[C@H](O)C(C)(C)[C@@H]5CC[C@]43C)[C@H]12	> 20
COC(=O)[C@]12CC[C@@H](C)[C@H](C)[C@H]1C1=CC[C@@H]3[C@@]4(C)CC[C@H](OC(C)=O)C(C)(C)[C@@H]4CC[C@@]3(C)[C@]1(C)CC2	> 20
C[C@H]1[C@H](C)CC[C@]2(C(=O)OCCCCN3CCNCC3)CC[C@]3(C)C(=CC[C@@H]4[C@@]5(C)CC[C@H](O)C(C)(C)[C@@H]5CC[C@]43C)[C@H]12	5.7
COC(=O)CCNC(=O)[C@]12CC[C@@H](C)[C@H](C)[C@H]1C1=CC[C@@H]3[C@@]4(C)CC[C@H](OC(C)=O)C(C)(C)[C@@H]4CC[C@@]3(C)[C@]1(C)CC2	> 20
C[C@H]1[C@H](C)CC[C@]2(C(N)=O)CC[C@]3(C)C(=CC[C@@H]4[C@@]5(C)CC[C@H](O)C(C)(C)[C@@H]5CC[C@]43C)[C@H]12	> 20
CNC(=O)CN(C)C(=O)[C@]12CC[C@@H](C)[C@H](C)[C@H]1C1=CC[C@@H]3[C@@]4(C)CC[C@H](OC(C)=O)C(C)(C)[C@@H]4CC[C@@]3(C)[C@]1(C)CC2	> 20
CNC(=O)CNC(=O)[C@]12CC[C@@H](C)[C@H](C)[C@H]1C1=CC[C@@H]3[C@@]4(C)CC[C@H](OC(C)=O)C(C)(C)[C@@H]4CC[C@@]3(C)[C@]1(C)CC2	> 20
C[C@H]1[C@H](C)CC[C@]2(C(=O)NCCBr)CC[C@]3(C)C(=CC[C@@H]4[C@@]5(C)CC[C@H](O)C(C)(C)[C@@H]5CC[C@]43C)[C@H]12	> 20
C[C@H]1[C@H](C)CC[C@]2(C(=O)OCCO)CC[C@]3(C)C(=CC[C@@H]4[C@@]5(C)CC[C@H](O)C(C)(C)[C@@H]5CC[C@]43C)[C@H]12	> 20
C[C@H]1[C@H](C)CC[C@]2(C(=O)NCC(=O)O)CC[C@]3(C)C(=CC[C@@H]4[C@@]5(C)CC[C@H](O)C(C)(C)[C@@H]5CC[C@]43C)[C@H]12	> 20
CC(=O)O[C@H]1CC[C@]2(C)[C@H]3CC=C4[C@@H]5[C@@H](C)[C@H](C)CC[C@]5(C(=O)NCCBr)CC[C@@]4(C)[C@]3(C)CC[C@H]2C1(C)C	> 20
C[C@H]1[C@H](C)CC[C@]2(C(=O)OCCN3CCOCC3)CC[C@]3(C)C(=CC[C@@H]4[C@@]5(C)CC[C@H](O)C(C)(C)[C@@H]5CC[C@]43C)[C@H]12	> 20
C[C@H]1[C@H](C)CC[C@]2(C(=O)OCC(=O)OC(C)(C)C)CC[C@]3(C)C(=CC[C@@H]4[C@@]5(C)CC[C@H](O)C(C)(C)[C@@H]5CC[C@]43C)[C@H]12	> 20
CNC(=O)CCNC(=O)[C@]12CC[C@@H](C)[C@H](C)[C@H]1C1=CC[C@@H]3[C@@]4(C)CC[C@H](O)C(C)(C)[C@@H]4CC[C@@]3(C)[C@]1(C)CC2	> 20
C[C@H]1[C@H](C)CC[C@]2(C(=O)OCCN3CCNCC3)CC[C@]3(C)C(=CC[C@@H]4[C@@]5(C)CC[C@H](O)C(C)(C)[C@@H]5CC[C@]43C)[C@H]12	> 20
C[C@H]1[C@H](C)CC[C@]2(C(=O)NCC(=O)NCCO)CC[C@]3(C)C(=CC[C@@H]4[C@@]5(C)CC[C@H](O)C(C)(C)[C@@H]5CC[C@]43C)[C@H]12	> 20
CC(=O)O[C@H]1CC[C@]2(C)[C@H]3CC=C4[C@@H]5[C@@H](C)[C@H](C)CC[C@]5(C(=O)NCC(=O)O)CC[C@@]4(C)[C@]3(C)CC[C@H]2C1(C)C	> 20
C[C@H]1[C@H](C)CC[C@]2(C(=O)N3CCC[C@H]3C(=O)O)CC[C@]3(C)C(=CC[C@@H]4[C@@]5(C)CC[C@H](O)C(C)(C)[C@@H]5CC[C@]43C)[C@H]12	> 20
CNC(=O)COC(=O)[C@]12CC[C@@H](C)[C@H](C)[C@H]1C1=CC[C@@H]3[C@@]4(C)CC[C@H](O)C(C)(C)[C@@H]4CC[C@@]3(C)[C@]1(C)CC2	> 20
